In a melting point compilation (Tetko et al.; mined from patent text by program, amines drawn as free bases though some values may be those of a salt):

SMILES	melting point [°C]
CC(C)NCC(O)COc1cccc2c1CCCC(=O)N2 (stereo not drawn)	143 to 145
CC(=O)Nc1ccc(C(C)=C(Cl)Cl)cc1	164 to 166
CC(C)(C)Nc1c([N+](=O)[O-])cc([N+](=O)[O-])c2nc(C(F)(F)F)[nH]c12	177 to 188
CS(=O)(=O)NCCNc1ccc([N+](=O)[O-])cc1	154
COCCOc1ccc([N+](=O)[O-])cc1[N+](=O)[O-]	31 to 33
COCC(=O)NCC(=O)N1CC1C#N (stereo not drawn)	70 to 72
CCOC(=O)C(C(=O)OCC)=C(SCc1ccc(OC)cc1)SCc1ccc(OC)cc1	57 to 59
C[Si](C)(C)OC(CCl)(Cn1ccnc1)c1ccc(F)cc1F (stereo not drawn)	88 to 89
CCOC(=O)CCN(Cc1ccc(OC)c(OC)c1)C(=O)CN(C)C(=O)Cc1ccc(NC(=O)Nc2ccccc2C)c(OC)c1	97 to 105
CCC(=O)c1ccc(O)c(CNC(=O)CCl)c1	143 to 145
CC1(C)C=Cc2c(-c3[nH]c4cn[nH]c(=O)c4c3Cl)ccc(OC(F)F)c2O1	226 to 234
O=Cc1cc(-n2nnnc2C(F)(F)F)ccc1OC(F)(F)F	40 to 42
CC(C)(C)c1cc(C(=O)Oc2ccc(C(=O)c3cc(C(C)(C)C)c(O)c(C(C)(C)C)c3)c(O)c2)cc(C(C)(C)C)c1O	120 to 122
CCOC(=O)C1(c2ccccc2)CCN(C(C)=O)C(=O)C1 (stereo not drawn)	45 to 46
CC(C)(C)c1ccc(OC(CC(=O)O)C(=O)O)c(C(C)(C)C)c1 (stereo not drawn)	177 to 181
COC(=O)c1ccccc1-c1ccc(COS(C)(=O)=O)cc1	43 to 45
CC(C)(C)OC(=O)NCCCn1cnc2c(N)nc3ccccc3c21	196 to 198
CC12CCC(CC1=O)C(C)(C)O2 (stereo not drawn)	40 to 48
CC(C)CC(C)(C(=O)NC1CCCCCCCCCCNC1=O)c1ccccc1S (stereo not drawn)	166 to 171
CCOC(=O)C(=O)Nc1c(C)oc2ccccc2c1=O	100
CCOC(=O)C1=C(C)N2CCNC2=C(C(=O)OCC)C1c1cccc2ccccc12 (stereo not drawn)	169 to 170
CC(=O)NCCCCCCOc1ccccc1C(=O)Nc1ccc(C(=O)N2CCCCc3ccccc32)cc1	171 to 172
O=[N+]([O-])c1cc2nc(O)c(O)nc2c2nonc12	> 300
COCCOc1cc2ncc(C#N)c(Nc3cc(OC)c(OC)c(OC)c3)c2cc1OC	188 to 190
CC(C)c1[nH]nc2c1C(=O)c1c(NC(=O)CN3CCC(C(N)=O)CC3)cccc1-2	224 to 225
CC(C)C(NS(=O)(=O)c1ccc2c3c(oc2c1)CCCC3)C(=O)O (stereo not drawn)	167 to 169
CCCCC(=N)NC(=O)Nc1ccccc1	156
COCCOCCOCCOc1cc([N+](=O)[O-])c([N+](=O)[O-])cc1OCCOCCOCCOC	43 to 45
ClCc1nc2cc(Br)ccc2o1	63 to 65

Now from value to compound:

melting point [°C]	SMILES
143 to 144	c1ccc(-c2ccc(-c3nc4n(n3)CCc3ccccc3-4)cc2)cc1
108 to 110	CC(=O)c1cccc(N2CCN(CCCCOc3ccc4ccc(=O)[nH]c4n3)CC2)c1Cl
209 to 211	Nc1nc2ccccc2c2c1ncn2CCCC(=O)c1ccccc1
142 to 144	O=S(=O)(Nc1ccc(Cl)cc1-c1cc(-c2ccc(Cl)cc2Cl)on1)C(F)(F)F
149 to 151	O=C(CCc1ccccc1)Nc1ccc(Br)cc1
84 to 85	O=Cc1cc2c3ccccc3c3ccccc3c2o1
120	CCC1(Cc2ccccc2)C(=O)N(C)C(=Cc2ccccc2C#N)C(=O)N1C (stereo not drawn)
80.5 to 82.5	CCCCCS(=O)(=O)NC(=O)/C=C/c1ccc(Oc2ncccn2)cc1Oc1ncc(C(F)(F)F)cc1Cl
232 to 234	CCCC(=O)c1cc(C(=O)O)c2cc(Cc3ccc(F)cc3)cnc2c1O
158 to 159	CCCn1nc(Cc2ccc(-c3ccccc3-c3nnn(C(c4ccccc4)(c4ccccc4)c4ccccc4)n3)cc2)c(C(=O)OCC)c1C(C)C
66 to 68	CCC(Oc1cccc(C(F)(F)F)c1)C(=O)NCc1ccccc1Cl (stereo not drawn)
54	CC(C)Oc1ccc(Cc2nn(-c3ccccc3Cl)c(=O)o2)cc1
169 to 171	COc1ccc(F)cc1Oc1c(Cl)ncnc1NS(=O)(=O)c1ccc(Cl)cc1
149	COc1cc(Nc2nccc(Oc3ccccc3)n2)cc(OC)c1OC
91 to 93	COC(=O)c1ccc(C=O)cc1SCc1ccccc1
167 to 171	CCCC1=C(C#N)C(c2ccccc2Cl)c2cn(C(=O)Nc3ccccc3)nc2N1 (stereo not drawn)
224 to 225	CC12CCC3c4ccc(C(=O)O)cc4CCC3C1CCC2C(=O)c1ccc(Oc2ccccc2)cc1 (stereo not drawn)
161 to 162	CCCSc1ncc(C=C(Cc2cccs2)C(=O)O)n1Cc1ccccc1Cl
170 to 172	CCC1c2cccn2-c2ccc(Cl)cc2N1S(=O)(=O)c1ccc(O)c(C)c1 (stereo not drawn)
101 to 103	CCCc1cc2cccc(C(=O)OCOC(=O)C(C)(C)C)c2n1Cc1ccc(-c2ccccc2-c2nnn[nH]2)cc1
120	Nc1cccc(S(=O)(=O)Nc2ccccc2NNC=O)c1
172 to 173	CCOc1ccc(C(=O)N(C)C)c2c1C(=O)N(Cn1nnn(-c3ccccc3)c1=S)S2(=O)=O
121 to 123	CN(C)CC#CC1=CC[N+]([O-])=C(c2ccccc2)c2cc(Cl)ccc21
142	O=C(NO)[C@H](CNS(=O)(=O)c1ccc(OCc2ccccc2)cc1)N1CCOCC1
112 to 115	Cc1cc(C)c(Nc2nc(C)ncc2S(=O)(=O)c2cccc(OCc3ccccc3)c2)c(C)c1
293 to 294	O=C(O)c1ccc2oc3ncccc3c(=O)c2c1
203 to 204	O=C(CCl)Nc1ccc2c(c1NC(=O)c1ccccc1)C(=O)c1ccccc1C2=O
198 to 200	O=c1c2ncn3c2n(c(=O)n1Cc1ccccc1)CC=C3c1cccc(C(F)(F)F)c1
280 to 282	CCCCC(C)c1ccc(C=Cc2cc3cc4ccccc4cc3s2)cc1 (stereo not drawn)
